Activity calls are given as the source filed them. The rule behind the calls is not given here.
Legend:
[1] = target: T1, Riboflavin-binding protein (Gallus gallus) (UniProt P02752); assay: Binding affinity to chicken riboflavin binding protein assessed as decrease in fluorescence intensity at upto 250 uM by fluorescence based assay
T1 sequence (whole entry): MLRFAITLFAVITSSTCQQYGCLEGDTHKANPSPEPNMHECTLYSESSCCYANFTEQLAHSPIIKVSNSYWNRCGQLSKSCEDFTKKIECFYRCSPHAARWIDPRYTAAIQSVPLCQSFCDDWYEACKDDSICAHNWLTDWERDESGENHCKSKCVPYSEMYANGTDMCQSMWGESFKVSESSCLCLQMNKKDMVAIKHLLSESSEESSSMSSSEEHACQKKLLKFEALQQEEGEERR

[2] = target: T1, Riboflavin-binding protein (Gallus gallus); assay: Binding affinity to chicken riboflavin binding protein assessed as binding energy by fluorescence based analysis

| Activity [1] | Activity [2] | SMILES |
| --- | --- | --- |
| Active | 2 kcal/mol | Cc1cc2nc3c(=O)[nH]c(=O)nc-3n(CCCCCCO)c2cc1C |
| Active | -11.9 kcal/mol | Cc1cc2nc3c(=O)[nH]c(=O)nc-3n(C[C@H](O)[C@H](O)[C@H](O)CO)c2cc1C |
